Values belong to the molecule of their own block, whether it stands above or below them.
Target: T1, Bcl-2 protein (Recombinant Human Bcl-2 Protein) (Homo sapiens, UniProt P10415)
T1 construct: purchased Novus NBP2-34889
Test: Binding evaluation of mixture library compounds to Bcl-2 using AS-MS (affinity selection mass spectrometry)
Conditions: for ASMS ratio (%) n = 1 / ASMS ratio (%) n = 2: ASMS Ratio(%)=(A−C)/B×100; for ASMS ratio (%) n = 1: replicate n = 1; for ASMS ratio (%) n = 2: replicate n = 2
Summary of the method: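 Bcl-2 binding is scored from LC/MS signal retained with protein through gel-filtration spin columns, normalised to unfiltered and protein-free controls. Incubation: 20 μM protein, […] per compound, 1 h, 23° C.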

[1] = AS-MS, mixture of 1200 compounds, Bcl-2
[2] = AS-MS on the mixture of 1200 library compounds

T1 sequence (P10415 whole entry): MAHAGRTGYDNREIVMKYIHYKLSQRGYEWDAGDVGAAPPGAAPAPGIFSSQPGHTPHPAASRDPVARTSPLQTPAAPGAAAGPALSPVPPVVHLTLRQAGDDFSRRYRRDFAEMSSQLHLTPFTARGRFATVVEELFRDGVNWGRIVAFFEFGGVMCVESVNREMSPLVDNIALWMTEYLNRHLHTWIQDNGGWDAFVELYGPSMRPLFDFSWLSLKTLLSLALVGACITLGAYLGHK

Molecule: CCOc1cncc(-c2cnn(-c3cc(C(=O)N4CCN(c5ccc(C(=O)NCC(F)(F)F)nn5)CC4)cc(C(F)(F)F)c3)c2)c1 [B1K022-01, 6-[4-[3-[4-(5-Ethoxypyridin-3-yl)pyrazol-1-yl]-5-(trifluoromethyl)benzoyl]piperazin-1-yl]-N-(2,2,2-trifluoroethyl)pyridazine-3-carboxamide]
- ASMS ratio (%) n = 1 [1]: 1.4%
- ASMS ratio (%) n = 2 [1]: 0.1%

Molecule: CCCNC(=O)c1ccc(N2CCN(Cc3ccc(-c4cccc(OCC)c4)c(C)c3)CC2)cc1 [B1M058-01]
- ASMS ratio (%) n = 1 [1]: −1.4%
- ASMS ratio (%) n = 2 [1]: −1.5%

Molecule: CCOc1cncc(-c2ccc(CN3CCN(c4ccc(C(=O)Nc5ccc(OC)cc5)nn4)CC3)cc2C)c1 [B1O074-01, 6-[4-[[4-(5-Ethoxypyridin-3-yl)-3-methylphenyl]methyl]piperazin-1-yl]-N-(4-methoxyphenyl)pyridazine-3-carboxamide]
- ASMS ratio (%) n = 1 [2]: 3.9%
- ASMS ratio (%) n = 2 [2]: −0.9%

Molecule: CCOc1cccc(-c2ccc(CN3CCN(c4ccc(C(=O)NCC(F)(F)F)cc4)CC3)c3ccccc23)c1 [B1K065-01, 4-[4-[[4-(3-Ethoxyphenyl)naphthalen-1-yl]methyl]piperazin-1-yl]-N-(2,2,2-trifluoroethyl)benzamide]
- ASMS ratio (%) n = 1 [1]: 5.9%
- ASMS ratio (%) n = 2 [1]: −5.6%

Molecule: 6-[4-[4-(5-Ethoxypyridin-3-yl)thiophene-2-carbonyl]piperazin-1-yl]-N-propylpyridazine-3-carboxamide [B1M082-01]
- ASMS ratio (%) n = 1 [2]: 0.0%
- ASMS ratio (%) n = 2 [2]: 0.0%

Molecule: CCOc1cccc(-c2ccc(CN3CCN(c4ccc(C(=O)NCC(F)(F)F)cc4)CC3)c(CC)c2)c1 [B1K049-01, 4-[4-[[4-(3-Ethoxyphenyl)-2-ethylphenyl]methyl]piperazin-1-yl]-N-(2,2,2-trifluoroethyl)benzamide]
- ASMS ratio (%) n = 1 [1]: −3.3%
- ASMS ratio (%) n = 2 [1]: 1.5%

Molecule: CCOc1cncc(C#Cc2cncc(C(=O)N3CCN(c4ccc(C(=O)Nc5ccc(OC)cc5)cc4)CC3)c2)c1 [B1O032-01, 4-[4-[5-[2-(5-Ethoxypyridin-3-yl)ethynyl]pyridine-3-carbonyl]piperazin-1-yl]-N-(4-methoxyphenyl)benzamide]
- ASMS ratio (%) n = 1 [2]: 4.5%
- ASMS ratio (%) n = 2 [2]: 0.9%

Molecule: 4-[4-[3-tert-Butyl-5-(3-ethoxyphenyl)benzoyl]piperazin-1-yl]-N-propylbenzamide [B1M062-01]
- ASMS ratio (%) n = 1 [1]: 1.6%
- ASMS ratio (%) n = 2 [1]: −1.7%

Molecule: CCOc1cccc(-c2ccc(C(C)N3CCN(c4ccc(C(=O)NCC(F)(F)F)cc4)CC3)cc2)c1 (centres unmarked) [B1K097-01, 4-[4-[1-[4-(3-Ethoxyphenyl)phenyl]ethyl]piperazin-1-yl]-N-(2,2,2-trifluoroethyl)benzamide]
- ASMS ratio (%) n = 1 [1]: −2.1%
- ASMS ratio (%) n = 2 [1]: −3.1%

Molecule: CCOc1cccc(-c2csc(C(=O)N3CCN(c4ccc(C(=O)NCC56CC7CC(CC(C7)C5)C6)cc4)CC3)c2)c1 [B1A023-01, N-(1-Adamantylmethyl)-4-[4-[4-(3-ethoxyphenyl)thiophene-2-carbonyl]piperazin-1-yl]benzamide]
- ASMS ratio (%) n = 1 [1]: 4.0%
- ASMS ratio (%) n = 2 [1]: 0.8%

Molecule: CCOc1cncc(-c2cc(CN3CCN(c4ccc(C(=O)NCC56CC7CC(CC(C7)C5)C6)nn4)CC3)cc(OC(F)(F)F)c2)c1 [B1A090-01, N-(1-Adamantylmethyl)-6-[4-[[3-(5-ethoxypyridin-3-yl)-5-(trifluoromethoxy)phenyl]methyl]piperazin-1-yl]pyridazine-3-carboxamide]
- ASMS ratio (%) n = 1 [1]: 3.3%
- ASMS ratio (%) n = 2 [1]: −1.0%

Molecule: 6-[4-[[3-(3-Ethoxyphenyl)-5-propan-2-yloxyphenyl]methyl]piperazin-1-yl]-N-propylpyridazine-3-carboxamide [B1M016-01]
- ASMS ratio (%) n = 1 [1]: 0.0%
- ASMS ratio (%) n = 2 [1]: 0.0%

Molecule: CCOc1cncc(-c2ccccc2CN2CCN(c3ccc(C(=O)NCC45CC6CC(CC(C6)C4)C5)nn3)CC2)c1 [B1A072-01, N-(1-Adamantylmethyl)-6-[4-[[2-(5-ethoxypyridin-3-yl)phenyl]methyl]piperazin-1-yl]pyridazine-3-carboxamide]
- ASMS ratio (%) n = 1 [1]: 3.9%
- ASMS ratio (%) n = 2 [1]: −0.2%

Molecule: CCOc1cccc(-c2ccc(CN3CCN(c4ccc(C(=O)Nc5ccc(OC)cc5)nn4)CC3)cc2C)c1 [B1O073-01, 6-[4-[[4-(3-Ethoxyphenyl)-3-methylphenyl]methyl]piperazin-1-yl]-N-(4-methoxyphenyl)pyridazine-3-carboxamide]
- ASMS ratio (%) n = 1 [2]: 2.0%
- ASMS ratio (%) n = 2 [2]: 3.7%

Molecule: CCOc1cncc(-c2ccc(CN3CCN(c4ccc(C(=O)N(CC)CC)cc4)CC3)c3ccccc23)c1 [B4J066-01, 4-[4-[[4-(5-Ethoxypyridin-3-yl)naphthalen-1-yl]methyl]piperazin-1-yl]-N,N-diethylbenzamide]
- ASMS ratio (%) n = 1 (AS-MS, mixture library, Bcl-2): 0.0%
- ASMS ratio (%) n = 2 (AS-MS, mixture library, Bcl-2): −1.5%

Molecule: 4-[4-[[3-Ethoxy-5-(3-ethoxyphenyl)phenyl]methyl]piperazin-1-yl]-N-propylbenzamide [B1M009-01]
- ASMS ratio (%) n = 2 [1]: 0.0%

Results, then the molecule that gave them:

- ASMS ratio (%) n = 1 [2]: −5.8%
- ASMS ratio (%) n = 2 [2]: −16.0%
Molecule: CCOc1cccc(-c2ccc(CN3CCN(c4ccc(C(=O)N(C)CC56CC7CC(CC(C7)C5)C6)nn4)CC3)c(CC)c2)c1 [B3A075-01, N-(1-Adamantylmethyl)-6-[4-[[4-(3-ethoxyphenyl)-2-ethylphenyl]methyl]piperazin-1-yl]-N-methylpyridazine-3-carboxamide]

- ASMS ratio (%) (n = 1): 0.0%
- ASMS ratio (%) (n = 2): 0.0%
Molecule: CCOc1cncc(-c2ccc(C(=O)N3CCN(c4ccc(C(=O)NS(=O)(=O)c5ccc(NCCSc6ccccc6)c(C(F)(F)F)c5)nn4)CC3)cc2C)c1 [B2R004-01, 6-[4-[4-(5-Ethoxypyridin-3-yl)-3-methylbenzoyl]piperazin-1-yl]-N-[4-(2-phenylsulfanylethylamino)-3-(trifluoromethyl)phenyl]sulfonylpyridazine-3-carboxamide]

- ASMS ratio (%) (n = 1): 0.0%
- ASMS ratio (%) (n = 2): 0.0%
Molecule: CCOc1cncc(-c2cnn(-c3cc(C(=O)N4CCN(c5ccc(C(=O)NS(C)(=O)=O)cc5)CC4)cc(C(F)(F)F)c3)c2)c1 [B2I044-01, 4-[4-[3-[4-(5-Ethoxypyridin-3-yl)pyrazol-1-yl]-5-(trifluoromethyl)benzoyl]piperazin-1-yl]-N-methylsulfonylbenzamide]

- ASMS ratio (%) (n = 1): 0.0%
- ASMS ratio (%) (n = 2): 0.0%
Molecule: CCOc1cccc(C#Cc2cncc(C(=O)N3CCN(c4ccc(C(=O)NS(=O)(=O)C(C)(C)C)cc4)CC3)c2)c1 [B2L031-01, N-tert-Butylsulfonyl-4-[4-[5-[2-(3-ethoxyphenyl)ethynyl]pyridine-3-carbonyl]piperazin-1-yl]benzamide]

- ASMS ratio (%) (n = 1): 4.2%
- ASMS ratio (%) (n = 2): −7.4%
Molecule: CCOc1cncc(-c2cc(CN3CCN(c4ccc(C(=O)NS(=O)(=O)c5ccc(NCCSc6ccccc6)c(C(F)(F)F)c5)cc4)CC3)cc(OC(F)(F)F)c2)c1 [B2R064-01, 4-[4-[[3-(5-Ethoxypyridin-3-yl)-5-(trifluoromethoxy)phenyl]methyl]piperazin-1-yl]-N-[4-(2-phenylsulfanylethylamino)-3-(trifluoromethyl)phenyl]sulfonylbenzamide]

- ASMS ratio (%) (n = 1): 0.0%
- ASMS ratio (%) (n = 2): 0.0%
Molecule: CCOc1cccc(-c2ccc(C(=O)N3CCN(c4ccc(C(=O)NS(=O)(=O)CCC(F)(F)F)nn4)CC3)c3ccccc23)c1 [B2N013-01, 6-[4-[4-(3-Ethoxyphenyl)naphthalene-1-carbonyl]piperazin-1-yl]-N-(3,3,3-trifluoropropylsulfonyl)pyridazine-3-carboxamide]

- ASMS ratio (%) n = 1 [2]: 0.0%
- ASMS ratio (%) n = 2 [2]: 0.0%
Molecule: CCOc1cccc(-c2cc(C(=O)N3CCN(c4ccc(C(=O)N(C)CC56CC7CC(CC(C7)C5)C6)cc4)CC3)cc(C(C)(C)C)c2)c1 [B3A037-01, N-(1-Adamantylmethyl)-4-[4-[3-tert-butyl-5-(3-ethoxyphenyl)benzoyl]piperazin-1-yl]-N-methylbenzamide]

- ASMS ratio (%) (n = 1): 0.0%
- ASMS ratio (%) (n = 2): 0.0%
Molecule: CCOc1cncc(-c2cc(CN3CCN(c4ccc(C(=O)NS(=O)(=O)c5ccc(NCCSc6ccccc6)c(C(F)(F)F)c5)cc4)CC3)cc(C(F)(F)F)c2)c1 [B2R062-01, 4-[4-[[3-(5-Ethoxypyridin-3-yl)-5-(trifluoromethyl)phenyl]methyl]piperazin-1-yl]-N-[4-(2-phenylsulfanylethylamino)-3-(trifluoromethyl)phenyl]sulfonylbenzamide]

- ASMS ratio (%) n = 1 (AS-MS, mixture library, Bcl-2): 0.9%
- ASMS ratio (%) n = 2 (AS-MS, mixture library, Bcl-2): 0.3%
Molecule: CCOc1cccc(-c2cc(CN3CCN(c4ccc(C(=O)N(CC)CC)nn4)CC3)cc(C(F)(F)F)c2)c1 [B4J087-01, 6-[4-[[3-(3-Ethoxyphenyl)-5-(trifluoromethyl)phenyl]methyl]piperazin-1-yl]-N,N-diethylpyridazine-3-carboxamide]

- ASMS ratio (%) n = 1 [2]: 1.4%
- ASMS ratio (%) n = 2 [2]: 3.4%
Molecule: CCOc1cncc(-c2ccc(CN3CCN(c4ccc(C(=O)Nc5ccc(OC)cc5)nn4)CC3)c(OC)c2)c1 [B1O080-01, 6-[4-[[4-(5-Ethoxypyridin-3-yl)-2-methoxyphenyl]methyl]piperazin-1-yl]-N-(4-methoxyphenyl)pyridazine-3-carboxamide]

- ASMS ratio (%) n = 1 (AS-MS, mixture library, Bcl-2): 20.8%
- ASMS ratio (%) n = 2 (AS-MS, mixture library, Bcl-2): 16.6%
Molecule: CCOc1cncc(-c2ccc(CN3CCN(c4ccc(C(=O)NS(=O)(=O)CC56CC7CC(CC(C7)C5)C6)nn4)CC3)c3ccccc23)c1 [B2A092-01, N-(1-Adamantylmethylsulfonyl)-6-[4-[[4-(5-ethoxypyridin-3-yl)naphthalen-1-yl]methyl]piperazin-1-yl]pyridazine-3-carboxamide]
